Results on 14 molecules are retold here after patent US8506930B2, “Compounds having affinity for amyloid” (Nihon Medi-Physics Co., Ltd., priority 2006, dated 2013).

Data set [1] deals with Salmonella typhimurium TA98. Description: Reverse mutation test (Ames test), TA98. The format is cell-based. As to the method:
(§1) In order to examine mutagenicity of Compound I-1, I-2, I-4 and I-5, reverse mutation test using Salmonella typhimurium TA98 and TA100 (hereinafter referred to as Ames test) was conducted.
(§2) The test was conducted without addition of S9mix and with addition of S9mix. Dimethylsulfoxide was used as a negative control. A positive control was 2-(2-furyl)-3-(5-nitro-2-furyl)acrylamide in case S9mix was not added, and 2-aminoanthracene in case S9mix was added.
(§3) The amount of each sample to be added to the test plate was 7 dosages (geometric ratio 4) with the maximum dose being 1250 μg/plate for Compounds I-1 and I-5, and 7 dosages (geometric ratio 3) with the maximum dose being 5000 μg/plate for Compounds I-2 and I-4. After a sample to be examined and a strain (TA98 or TA100), or a sample to be examined, S9mix and the strain were mixed together, the mixture was multilayered using soft agar on a medium of a test plate, and then incubated at 37° C. for 48 hours.
Background: The Ames test detects mutagens through reverse mutation in bacteria.

Data set [2] relates to Salmonella typhimurium TA100. Description: Reverse mutation test (Ames test), TA100. The format is cell-based. The method, then: as §1, §2, §3
For data set [3], the system named is Salmonella typhimurium TA98 and TA100. Description: Reverse mutation test (Ames test), overall judgment. The format is cell-based. Conditions: TA98 and TA100, with and without S9mix. As to the method:
as §1, §2, §3

In data set [4] the test system is bone marrow cells of Crlj:CD1(ICR) male mouse. Description: Micronucleus test. The format is in vivo. The note with it: for appearance frequency of MNPCE as compared to the negative control group: 24 and 48 hours after single administration. As to the method: In order to study mutagenicity (in vivo) of Compound I-4, induction of micronucleated polychromatic erythrocyte (hereinafter referred to as MNPCE) was examined using bone marrow cells of Crlj:CD1(ICR) male mouse.
0 mg/kg (negative control group), 250, 500, 1000 and 2000 mg/kg (test sample group) were set as doses for the test. Mice were sacrificed 24 and 48 hours after single oral administration, and bone marrow smear was prepared and observed. Further, a single dose of MMC at 2 mg/kg was abdominally administrated in positive control group, mice were sacrificed 24 hours after the administration, and then bone marrow smear was prepared and observed.
As statistical analysis, significance tests were conducted by Wilcoxon rank sum test for the appearance frequency of MNPCE and the ratio of polychromatic erythrocyte (hereinafter referred to as PCE) to the total red blood cell (hereinafter referred to as RBC) in each administration group concerning the test sample and positive control groups relative to the negative control group and concerning these groups relative to each other where the significance level was set to less than 5% and less than 1%, respectively.

Data set [5] has as its system Chinese Hamster fibroblast cell line (CHL/IU cell). Description: Chromosome aberration test. It counts as cell-based. Conditions: short-term treatment with or without S9 and 24-hour continuous treatment; 0.15-1.2 mg/mL. The method, then:
In order to examine whether Compound I-4 can induce chromosome aberration, the chromosome aberration test was conducted using Chinese Hamster fibroblast cell line (CHL/IU cell) in a culture system with or without addition of S9 by short-term treatment process and in a 24-hour culture system by continuous treatment process. The addition amount of a sample to be tested was set to 1.2, 0.6, 0.3, and 0.15 mg/mL for all the respective culture systems.

Data set [6] in a line: Transferability into brain and clearance, Examples I-20 to I-21. Conditions: rats, intravenous injection, Table 1-7. The format is in vivo, male Wistar rats. An excerpt:
Three animals were used for Experiment I-20 and Comparative Experiment I-9, and two animals were used for Experiment I-21 at the respective time points.

Data set [7] concerns intracerebral amyloid (aggregated Aβ1-42 injected into amygdaloid nucleus). Description: Confirmation of imaging of amyloid in brain (ex vivo autoradiogram), Examples II-12 and II-13. The arrangement: species or system male Wistar rat. The note with it: for radioactive accumulation at sites other than amyloid injected sites: autoradiogram, 60 minutes after tail vein injection; for accumulation of radioactivity in amygdaloid nucleus on the side to which the physiological saline solution was injected: brain slice 60 minutes after tail vein injection. The method, then:
(§4) The same procedures as in Example II-12 were performed except using a 10 mg/mL solution of Compound II-2 in ascorbic acid (the radioactive concentration of the sample solution was 25 MBq/mL).

Data set [8] has as its target T1, intracerebral amyloid (aggregated Aβ1-42 injected into amygdaloid nucleus) (Homo sapiens, UniProt P05067).
T1 construct: Aβ1-42 (Wako) was dissolved in phosphate buffer (pH 7.4); purchased Wako
The description is as above. The note with it: brain slice 60 minutes after tail vein injection. Further details: species or system male Wistar rat. As to the method:
as §4

Data set [9] can be described thus: Transferability into brain and clearance, Examples II-10 to II-11. The note with it: rats, intravenous injection, Table 2-5. The format is in vivo, male Wistar rats.
Description: 0.05 mL each of the prepared sample solutions was injected under thiopental anesthesia into the tail vein of the rats. The rats were sacrificed by bleeding from abdominal artery, and brains were removed and subjected to measurement of mass of brains and further subjected to measurement of radioactivity (hereinafter referred to as A in this Example) with a single channel analyzer (detector type SP-20 manufactured by OHYO KOKEN KOGYO Co., Ltd.) 2, 5, 30, and 60 minutes after the injection. Further, the radioactivity level of the rest of the whole body was measured in the same manner as above (hereinafter referred to as B in this Example). Using these measurement results, radioactive distribution per unit weight of brain (% ID/g) at the respective time points were calculated in accordance with the following formula (2-3).
Three animals were used for the experiment at the respective time points.
Data set [10] can be described thus: Partition coefficient based on the octanol extraction method, Examples II-8 to II-9. It counts as physicochemical. The note with it: octanol / 10 mmol/L phosphate buffer (pH 7.4); Table 2-4.
Description: To 2 mL of octanol, 10 μL each of the prepared sample solutions was added, 2 mL of 10 mmol/L phosphate buffer (pH 7.4) was added, followed by stirring for 30 seconds. After the mixture was centrifuged with a low-speed centrifuge (2000 rpm×60 min.), the octanol layer and the water layer were sampled each in an amount of 1 mL, and subjected to measurement of radioactivity count with an autowell gamma system (Type: ARC-301B, manufactured by Aloka). Using the obtained radioactivity count, log Poctanol was calculated in accordance with the equation (2-2).
The target in data set [11] is T2, amyloid (aggregated Aβ1-42) (Homo sapiens, UniProt P05067).
T2 construct: Aβ1-42 (Wako) was dissolved in phosphate buffer (pH 7.4); purchased Wako
Description: Measurement of affinity with amyloid (inhibition of [125I]3′-I-BTA-0 binding), Example II-7. The note with it: [125I]3′-I-BTA-0 400 pmol/L, amyloid 1 μmol/L, 1% bovine serum albumin-containing phosphate buffer (pH 7.4). From the text:
Then, each sample solution was filtered through a glass fiber filter (trade name: Mulutiscreen™-FC, manufactured by Millipore), to separate the [^125I]3′-I-BTA-0 attached to amyloid from the free [^125I]3′-I-BTA-0.
The measured radioactivity level was defined as the background radioactivity level, and used in the calculation of the inhibition ratio (hereinafter referred to as BG).
A graph in which values converted by probit transformation from the obtained inhibition ratios were plotted relative to logarithms of concentrations of compounds for evaluation was prepared to obtain an approximate straight line by the least square method.

The conditions of data set [12]: International Publication WO03/106439 pamphlet; cited from earlier work.
The conditions of data set [13]: normal mice, [125I]-labeled, cited from earlier work; for transfer into brain: 2 minutes after administration.

What is called IC50 is the concentration at which inhibition is half-maximal.

T1 sequence (P05067 672-713): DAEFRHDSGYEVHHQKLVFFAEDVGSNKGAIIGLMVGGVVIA
T2 sequence (P05067 672-713 limits assumed): as the sequence (P05067 672-713) above

As for `FCCCOc1ccc(-c2cn3cc(Br)ccc3n2)cc1` [Compound I-1, 6-bromo-2-[4′-(3″-fluoropropoxy)phenyl]imidazo[1,2-a]pyridine], the “Mutagenicity, TA98” value in data set [1] (With addition of S9mix) and in data set [1] (Without addition of S9mix) was “Negative” each time. Moreover, the “Mutagenicity, TA100” value in data set [2] (With addition of S9mix) and in data set [2] (Without addition of S9mix) was “Negative” each time. For the same molecule, in data set [3], the “judgment in the Ames test” value was “negative”.

For the molecule `FCCCOc1ccc(-c2cn3cc(I)ccc3n2)cc1` [Compound I-2, 2-[4′-(3″-fluoropropoxy)phenyl]-6-iodoimidazo[1,2-a]pyridine], the “Mutagenicity, TA98” value in [1] (With addition of S9mix) and in data set [1] (Without addition of S9mix) was “Negative” each time. For the same molecule, the “Mutagenicity, TA100” value in data set [2] (With addition of S9mix) and in data set [2] (Without addition of S9mix) was “Negative” throughout. Also, the “judgment in the Ames test” value in data set [3] is recorded as “negative”.

Consider `FCCOc1ccc(-c2cn3cc(I)ccc3n2)cc1` [Compound I-4, 2-[4′-(2″-fluoroethoxy)phenyl]-6-iodoimidazo[1,2-a]pyridine], for which, in data set [4] (mouse bone marrow), the “appearance frequency of MNPCE as compared to the negative control group” value is recorded as “no statistically significant difference”. For the same molecule, the “ratio of PCE to RBC as compared to the negative control group” value in [4] (mouse bone marrow, 24 and 48 hours after single oral administration, 250-2000 mg/kg) is listed as “no statistically significant difference”. Also, the “mutagenicity (in vivo) judgment” value in data set [4] (single oral administration, 250-2000 mg/kg) was “negative”. Also, the “appearance frequency of cells having structural aberration or numerical aberration (diploid)” value in data set [5] is on record as “comparable to that of the negative control group”. Moreover, in data set [5], the “capability of inducing chromosome aberration (judgment)” value is reported as “negative”. Also, the “Mutagenicity, TA98” value in data set [1] (With addition of S9mix) and in data set [1] (Without addition of S9mix) was “Negative” throughout. The “Mutagenicity, TA100” value in data set [2] (With addition of S9mix) and in data set [2] (Without addition of S9mix) was “Negative” each time. In addition, the “judgment in the Ames test” value in data set [3] is listed as “negative”.

As to `FCCCOc1ccc(-c2cn3cc(I)cnc3n2)cc1` [Compound I-5, 2-[4′-(3″-fluoropropoxy)phenyl]-6-iodoimidazo[1,2-a]pyrimidine], the “Mutagenicity, TA98” value in [1] (With addition of S9mix) and in data set [1] (Without addition of S9mix) was “Negative” throughout. Moreover, the “Mutagenicity, TA100” value in data set [2] (With addition of S9mix) and in data set [2] (Without addition of S9mix) was “Negative” each time. Moreover, in data set [3], the “judgment in the Ames test” value is on record as “negative”.

Turning to `[18F]CCCOc1ccc(-c2cn3cc(Br)ccc3n2)cc1` [Compound I-8, 6-bromo-2-[4′-(3″-[^18F]fluoropropoxy)phenyl]imidazo[1,2-a]pyridine], the “Radioactive distribution in brain per unit weight, After 2 min.” value in data set [6] (2 min.) was found to be 1.20 % ID/g. The “Radioactive distribution in brain per unit weight, After 5 min.” value in data set [6] (5 min.) worked out at 0.75 % ID/g. Moreover, in data set [6] (30 min.), the “Radioactive distribution in brain per unit weight, After 30 min.” value stood at 0.18 % ID/g. Besides, the “Radioactive distribution in brain per unit weight, After 60 min.” value in [6] (60 min.) is 0.12 % ID/g.

In the case of `OCCOc1ccc(-c2cn3cc([123I])ccc3n2)cc1` [Compound II-1, 2-[4′-(2″-hydroxyethoxy)phenyl]-6-[^123I]iodoimidazo[1,2-a]pyridine], in data set [7], the “radioactive accumulation at sites other than amyloid injected sites” value is listed as “little radioactive accumulation at the sites other than amyloid injected sites” and the “accumulation of radioactivity in amygdaloid nucleus on the side to which the physiological saline solution was injected” value is “no significant accumulation of radioactivity”. In addition, the “accumulation of radioactivity in amygdaloid nucleus on the side to which the amyloid suspension was injected” value in data set [8] is given as “marked accumulation of radioactivity”. Moreover, in data set [9], the “Radioactive distribution in brain per unit weight, After 2 min.” value turned out to be 0.90 % ID/g; the “Radioactive distribution in brain per unit weight, After 5 min.” value is 0.52 % ID/g; the “Radioactive distribution in brain per unit weight, After 30 min.” value is on record as 0.06 % ID/g; the “Radioactive distribution in brain per unit weight, After 60 min.” value is 0.01 % ID/g. Moreover, the logPoctanol value in data set [10] came out at 1.8.

As to `CCOc1ccc(-c2cn3cc([123I])ccc3n2)cc1` [Compound II-2, 2-(4′-ethoxyphenyl)-6-[^123I]iodoimidazo[1,2-a]pyridine], in data set [7], the “radioactive accumulation at sites other than amyloid injected sites” value is reported as “some radioactive accumulation in sites other than amyloid injected sites, but the accumulation was highly suppressed as compared to ^123I-IMPY” and the “accumulation of radioactivity in amygdaloid nucleus on the side to which the physiological saline solution was injected” value is “no significant accumulation of radioactivity”. Further, in [8], the “accumulation of radioactivity in amygdaloid nucleus on the side to which the amyloid suspension was injected” value is reported as “marked accumulation of radioactivity”. For the same molecule, in [9], the “Radioactive distribution in brain per unit weight, After 2 min.” value stood at 0.89 % ID/g; the “Radioactive distribution in brain per unit weight, After 5 min.” value came out at 0.66 % ID/g; the “Radioactive distribution in brain per unit weight, After 30 min.” value is listed as 0.13 % ID/g; the “Radioactive distribution in brain per unit weight, After 60 min.” value is reported as 0.04 % ID/g. Moreover, the logPoctanol value in [10] stood at 2.1.

Consider `OCCOc1ccc(-c2cn3cc(I)ccc3n2)cc1` [Compound II-3, 2-[4′-(2″-hydroxyethoxy)phenyl]-6-iodoimidazo[1,2-a]pyridine], for which the IC50 in data set [11] was < 100 nM.

Take `Nc1c(/N=N/c2ccc(-c3ccc(/N=N/c4cc(S(=O)(=O)O)c5ccccc5c4N)cc3)cc2)cc(S(=O)(=O)O)c2ccccc12` [Congo Red, reference compound]: the half-inhibitory concentration (IC50) in [11] was > 1000 nM.

With `CC(=C(C#N)C#N)c1ccc2cc(N(C)CCF)ccc2c1` [FDDNP, 2-(1-{6-[(2-fluoroethyl)(methyl)amino]-2-naphthyl}ethylidene)malononitrile], in data set [12], the “reverse mutation test result” value is “positive”.

For the molecule `CN(C)c1ccc(-c2nc3ccc(I)cc3o2)cc1` [IBOX, 6-iodo-2-[4′-(N,N-dimethylamino)phenyl]benzoxazole], in data set [13], the transfer into brain entry is given as “transferred into brain” and the “clearance from normal tissues” value was “insufficient in clearance from normal tissues”.

For the molecule `CO[C@@]12[C@H](COC(N)=O)C3=C(C(=O)C(C)=C(N)C3=O)N1C[C@@H]1N[C@@H]12` [MMC, reference compound], in data set [4] (mouse bone marrow), the “appearance frequency of MNPCE as compared to the negative control group” value is given as “significant increase”.

In the case of `CN(C)c1ccc(-c2nc3ccc(I)cc3s2)cc1` [TZDM, 6-iodo-2-[4′-(N,N-dimethylamino)phenyl]benzothiazole], in data set [13], the transfer into brain result is reported as “transferred into brain” and the “clearance from normal tissues” value is recorded as “insufficient in clearance from normal tissues”.

With `CN(C)c1ccc(/C=C/c2ccc(I)cc2)cc1` [m-I-SB, (E)-4-dimethylamino-4′-iodostilbene], in data set [13], the transfer into brain entry is “transferred into brain” and the “clearance from normal tissues” value is “insufficient in clearance from normal tissues”.
